“Also recorded” adds a separate entry of the source.
Tests used:
[1] = system: LN; assay: 48 week study of LN treatment: voclosporin plus MMF and oral corticosteroids, with pharmacodynamic (eGFR-guided) dosing; format: in vivo, human; settings: for Patients with CR at 24 weeks / Patients with CR at 48 weeks / Patients with PR at 24 weeks / Patients with PR at 48 weeks: patients with no dose reduction
Protocol: The study was conducted over a period of 48 weeks and safety was evaluated at 24 weeks.
Subjects were assessed after 24 weeks and 48 weeks as well as a subsequent evaluation at 50 weeks.
PR is a composite end-point that includes safety and efficacy: UPCR reduction of 50% from baseline and no use of rescue medication.
To determine the efficacy of the pharmacodynamics protocol wherein dosage is reduced or stopped according to the presence or absence of indicators of the decrease in eGFR experienced as a side effect, these three groups of patients were assessed after 24 weeks and 48 weeks of treatment in consideration of whether treatment was altered according to the invention protocol.
PR is defined as UPCR reduction of 50% from baseline and no use of rescue medication.

[2] = system: LN; assay: Low dosage protocol: clinical studies similar to Example 1, dosage reduced to 15.8 or 7.9 mg BID; format: in vivo, human
[3] = system: subjects with active lupus nephritis; assay: Double-blind randomized controlled trial in active lupus nephritis: complete renal response; format: in vivo, human; settings: at one year
[4] = system: subjects with lupus nephritis; assay: 24-hour urinary electrolyte excretion concentrations in the lupus nephritis trial; format: in vivo, human; settings: for Potassium urinary excretion concentration, change from baseline, mean ± SEM / Sodium urinary excretion concentration, change from baseline, mean ± SEM: baseline to one year, 24-hour urine
Excerpt: Twenty-four-hour urine samples from 60 patients in each treatment arm were selected for urinary analysis of electrolytes. […] The mean change from baseline to one year in magnesium, potassium and sodium were presented as 24-hour urinary excretion concentrations.

[5] = system: subjects with biopsy-proven active lupus nephritis; assay: Pooled Phase 2 and Phase 3 lupus nephritis studies: complete renal response rate; format: in vivo, human; settings: pooled data
Excerpt: (§1) All patients were concurrently administered mycophenolate mofetil (MMF) (target 1 g BID) and rapidly-tapered, low-dose steroids.

[6] = system: subjects with LN; assay: Pooled Phase 2 and Phase 3 lupus nephritis studies: fasting lipid profile; format: in vivo, human
Protocol: as §1
Fasting total cholesterol, low-density lipoprotein cholesterol (LDL), high-density lipoprotein cholesterol (HDL), and triglycerides were measured at baseline and at a one year follow-up in a central, CLIA-certified laboratory.

[7] = system: subjects with lupus nephritis; assay: Long-term continuation study: eGFR, UPCR, oral steroid dose; format: in vivo, human; settings: for Corrected eGFR, mean / UPCR, mean: N = 116
[8] = system: subjects with lupus nephritis; assay: Long-term continuation study: adverse events; format: in vivo, human
[9] = system: patients with lupus nephritis; settings: patients treated with voclosporin; cited from earlier work
[10] = system: mouse kidney; assay: MALDI-MSI localization in mouse kidney after IV administration; settings: tail vein injection of parent drug, compared between voclosporin and cyclosporine A species
Protocol: Kidneys were cryosectioned and covered with a matrix for MALDI-MSI analysis. The sample was measured in a raster process in the mass spectrometer, resulting in a spatially resolved mass spectra. The detected molecules were visualized as a color intensity map (m/z 0%-100%). Histological staining of the sample was then performed. Histological staining and the MALDI-MSI measurements of the same sample were co-registered.

[11] = High Dose 39.5 mg BID, 24 weeks, n=88
[12] = High Dose 39.5 mg BID, 48 weeks, n=88
[13] = High Dose 39.5 mg BID, patients with dose reductions (pharmacodynamically dosed)
[14] = Low Dose 23.7 mg BID, 48 weeks, n=89
[15] = Low Dose 23.7 mg BID, patients with dose reductions (pharmacodynamically dosed)
[16] = low dosage 23.7 mg BID + MMF + corticosteroids, whole group
[17] = any subgroup, either treatment arm, one year
[18] = change from baseline to one year

## C=C/C=C/C[C@@H](C)[C@@H](O)[C@H]1C(=O)N[C@@H](CC)C(=O)N(C)CC(=O)N(C)[C@@H](CC(C)C)C(=O)N[C@@H](C(C)C)C(=O)N(C)[C@@H](CC(C)C)C(=O)N[C@@H](C)C(=O)N[C@H](C)C(=O)N(C)[C@@H](CC(C)C)C(=O)N(C)[C@@H](CC(C)C)C(=O)N(C)[C@@H](C(C)C)C(=O)N1C [voclosporin]
[1]; [11]
  Patients with Dose Reduction: 47 (53.4) n(%)
  Patients with no Dose Reduction: 41 (46.6) n(%)
[1]; [12]
  Patients with Dose Reduction: 53 (60.2) n(%)
  Patients with no Dose Reduction: 35 (39.8) n(%)
[1]; [13]
  Patients with CR at 24 weeks, percent: (27.7) %
  Patients with CR at 48 weeks, percent: (45.3) %
  Patients with PR at 24 weeks, number: 34 n
  Patients with PR at 24 weeks, percent: (72.3) %
  Patients with PR at 48 weeks, percent: (77.4) %
[1]; High Dose 39.5 mg BID
  Patients with CR at 24 weeks: 11 (26.8) n(%)
  Patients with CR at 48 weeks: 11 (31.4) n(%)
  Patients with PR at 24 weeks: 24 (58.5) n(%)
  Patients with PR at 48 weeks: 22 (62.9) n(%)
[1]; Low Dose 23.7 mg BID, 24 weeks, n=89
  Patients with no Dose Reduction: 50 (56.2) n(%)
[1]; [14]
  Patients with Dose Reduction: 46 (51.7) n(%)
  Patients with no Dose Reduction: 43 (48.3) n(%)
[1]; [15]
  Patients with CR at 24 weeks, percent: (35.9) %
  Patients with CR at 48 weeks, percent: (52.2) %
  Patients with PR at 24 weeks, percent: (71.8) %
  Patients with PR at 48 weeks, number: 35 n
  Patients with PR at 48 weeks, percent: (76.1) %
[1]; Low Dose 23.7 mg BID
  Patients with CR at 24 weeks: 15 (30.0) n(%)
  Patients with CR at 48 weeks: 20 (46.5) n(%)
  Patients with PR at 24 weeks: 34 (68.0) n(%)
  Patients with PR at 48 weeks: 26 (60.5) n(%)
[1]; [16]
  patients showing CR at 24 weeks: 32.6%
  patients showing PR at 24 weeks: 70%
[2]; dosage lowered to 7.9 mg BID quite early in the treatment
  complete or partial remission at reduced dosage: Substantial numbers of subjects showed complete or partial remission
[2]; dosage reduced almost immediately to 15.8 mg BID
  remission at reduced dosage: a substantial portion of subjects showed substantial remission
[3]; 23.7 mg twice daily + MMF + low-dose steroids
  complete renal response rate: 40.8%
[3]; p<0.0001
  complete renal response, OR vs MMF and low-dose steroids only: 2.65
[4]; Non-responders, n = 32
  Potassium urinary excretion concentration, change from baseline, mean ± SEM: -2.48 ± 4.806 mmol/L
  Sodium urinary excretion concentration, change from baseline, mean ± SEM: -23.0 ± 12.69 mmol/L
[4]; Responders, n = 28
  Potassium urinary excretion concentration, change from baseline, mean ± SEM: -6.38 ± 24.0 mmol/L
  Sodium urinary excretion concentration, change from baseline, mean ± SEM: -27.6 ± 109 mmol/L
[4]; all subgroups except responders in the control arm, one year
  Decrease from baseline in urinary sodium excretion concentration: < 30.5 mmol/L
[4]; [17]
  Mean changes from baseline in urinary magnesium excretion concentration (magnitude): < 13.4 mg/dL
  Mean changes from baseline in urinary potassium excretion concentration (magnitude): < 6.4 mmol/L
[4]; at the studied dose, regardless of response to treatment
  changes from baseline in urinary electrolyte excretion concentrations of magnesium, potassium, and sodium: not clinically meaningful
[4]; eGFR decrease cohort, n = 28
  Potassium urinary excretion concentration, change from baseline, mean ± SEM: -4.58 ± 4.648 mmol/L
  Sodium urinary excretion concentration, change from baseline, mean ± SEM: -30.5 ± 11.92 mmol/L
[5]; one year of treatment, added to MMF and low-dose steroids
  complete renal response rate (CRR): 43.7%
[5]; one year, P<0.0001
  complete renal response, OR vs control: 2.76
[6]; 23.7 mg BID arm
  HDL cholesterol, Change from Baseline to One Year, mean: -5.9 mg/dL
  LDL cholesterol, Change from Baseline to One Year, mean: -57.4 mg/dL
  Total cholesterol, Change from Baseline to One Year, mean: -82.6 mg/dL
  Triglycerides, Change from Baseline to One Year, mean: -74.1 mg/dL
[6]; Baseline, 23.7 mg BID arm, normal range 50 to 130
  LDL cholesterol, observed, mean: 174.0 mg/dL
[6]; Baseline, 23.7 mg BID arm, normal range 50 to 150
  Triglycerides, observed, mean: 239.6 mg/dL
[6]; Baseline, 23.7 mg BID arm, normal range 100 to 200
  Total cholesterol, observed, mean: 288.8 mg/dL
[6]; One Year, 23.7 mg BID arm
  LDL cholesterol, observed, mean: 114.3 mg/dL
  Total cholesterol, observed, mean: 196.6 mg/dL
  Triglycerides, observed, mean: 148.4 mg/dL
[6]; at baseline
  percentage of subjects with normal triglycerides: 32.3%
[6]; at one year
  percentage of subjects with normal triglycerides: 56.1%
[6]; baseline to one year
  increase in percentage of patients with total cholesterol in the normal range: about 42%
  increase in percentage with normal LDL: about 42%
[6]; [18]
  HDL cholesterol, LS Mean Difference Voclosporin vs Control: -0.6 mg/dL
  LDL cholesterol, LS Mean Difference Voclosporin vs Control: -10.3 mg/dL
  Total cholesterol, LS Mean Difference Voclosporin vs Control: -15.1 mg/dL
  Triglycerides, LS Mean Difference Voclosporin vs Control: -15.9 mg/dL
[6]; within the normal range at baseline, both arms
  Mean HDL levels over the study: remained stable throughout the study
[7]; Month 12, 23.7 mg twice daily + MMF + low-dose steroids
  Corrected eGFR, mean: 80.7 mL/min/1.73 m^2
[7]; Month 12
  UPCR, mean: 0.86 mg/mg
[7]; all time points during the three years
  mean UPCR versus control: lower
[7]; at 36 months
  increase from baseline eGFR, compared to the active control group: +2.7 mL/min
[7]; over 36 months, 116 subjects
  mean estimated glomerular filtration rate (eGFR) over time: stable over 36 months
[7]; pre-treatment Baseline
  Corrected eGFR, mean: 79.0 mL/min/1.73 m^2
  UPCR, mean: 3.941 mg/mg
[8]; continuation study
  withdrawals: 12.9%
[8]; continuation study, four deaths in the active control group
  deaths in the treated group: no deaths
[8]; n = 116
  Adverse Event Leading to Voclosporin/Placebo Discontinuation: 10.3%
  Disease-Related Adverse Event: 51.7%
  Treatment-Related Adverse Event: 27.6%
  Treatment-Related Serious Adverse Event: 0.9%
[8]; n = 116, 23.7 mg twice daily + MMF + low-dose steroids
  Any Adverse Event: 88.8%
[8]; up to three years of treatment
  tolerability: well tolerated with no unexpected safety signals observed
[9]
  Mean serum electrolyte concentrations: within normal ranges
[10]
  distribution, accumulation and intensity in the kidney (MALDI-MSI): relatively weak throughout the kidney, particularly in the cortex; also recorded: do not accumulate at high concentrations in the kidney

Reference: US20230381271A1, “PROTOCOL TO MINIMIZE CALCINEURIN INHIBITOR NEPHROTOXICITY” (Aurinia Pharmaceuticals Inc., priority 0001, published 2023)
